#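 Five concentrations, 48 hours, 96-well plates. GI50 = concentration required for 50% inhibition of growth. Definition used: TGI = concentration required for complete inhibition of growth.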
# Experiments:
# Experiment in all cases: growth of human tumour cells (NCI), 48 h
# [1] = system: SN12C renal
# [2] = system: OVCAR-5 ovarian
# [3] = system: 786-0 renal
# [4] = system: HS 578T breast
# [5] = system: T-47D breast
# [6] = system: MOLT-4 leukemia
# [7] = system: CAKI-1 renal
# [8] = system: M14 melanoma
# [9] = system: HCT-116 colon
# [10] = system: KM12 colon
# [11] = system: UACC-62 melanoma
# [12] = system: OVCAR-3 ovarian
# [13] = system: SK-MEL-5 melanoma
# [14] = system: DU-145 prostate
# [15] = system: CCRF-CEM leukemia
# [16] = system: UACC-257 melanoma
# [17] = system: RPMI-8226 leukemia
# [18] = system: HOP-62 NSCLC
# [19] = system: HL-60(TB) leukemia
# [20] = system: SK-MEL-2 melanoma
# [21] = system: PC-3 prostate
# [22] = system: BT-549 breast
# [23] = system: SF-295 CNS
# [24] = system: NCI-H522 lung
# [25] = system: NCI-H23 lung
# [26] = system: A498 renal
# [27] = system: SR leukemia
# [28] = system: LOX IMVI melanoma
smiles,measurement,setting,value
CCN(CC)c1ccc(C=C2C(=O)NC(=S)NC2=O)cc1,GI50,[1],7.24 µM
same,TGI,[1],23.1 µM
same,GI50,[2],11.9 µM
same,TGI,[2],26.5 µM
same,GI50,[3],2270 nM
same,TGI,[3],4.08 µM
same,GI50,[4],5.53 µM
same,TGI,[4],> 100 µM
same,GI50,[5],9.62 µM
same,TGI,[5],25.7 µM
same,GI50,[6],3.16 µM
same,TGI,[6],10.4 µM
same,GI50,[7],1720 nM
same,TGI,[7],4.5 µM
same,GI50,[8],6.6 µM
same,TGI,[8],21 µM
same,GI50,[9],3.34 µM
same,TGI,[9],8.98 µM
same,GI50,[10],4.52 µM
same,TGI,[10],16.6 µM
same,GI50,[11],2260 nM
same,TGI,[11],6.72 µM
same,GI50,[12],3.15 µM
same,TGI,[12],8.68 µM
same,GI50,[13],9.25 µM
same,TGI,[13],21.5 µM
same,GI50,[14],4.18 µM
same,TGI,[14],13 µM
same,GI50,[15],2120 nM
same,TGI,[15],6.89 µM
same,GI50,[16],6.46 µM
same,TGI,[16],19.4 µM
same,GI50,[17],2150 nM
same,TGI,[17],5.49 µM
same,GI50,[18],5.7 µM
same,TGI,[18],19.1 µM
same,GI50,[19],2600 nM
same,TGI,[19],7.58 µM
same,GI50,[20],2730 nM
same,TGI,[20],7.05 µM
same,GI50,[21],2750 nM
same,TGI,[21],7.96 µM
same,GI50,[22],2270 nM
same,TGI,[22],4.74 µM
same,GI50,[23],6.21 µM
same,TGI,[23],21.2 µM
same,GI50,[24],1770 nM
same,TGI,[24],4.29 µM
same,GI50,[25],2980 nM
same,TGI,[25],9.72 µM
same,GI50,[26],3.29 µM
same,TGI,[26],11.3 µM
same,GI50,[27],1690 nM
same,TGI,[27],10.3 µM
same,GI50,[28],2120 nM
same,TGI,[28],4.57 µM

# Source: PubChem BioAssay (NCI)
